Paper PMC9024977, “In Vitro and In Silico Studies of Human Tyrosyl-DNA Phosphodiesterase 1 (Tdp1) Inhibition by Stereoisomeric Forms of Lipophilic Nucleosides: The Role of Carbohydrate Stereochemistry in Ligand-Enzyme Interactions” (Molecules, 2022)

Experiments:
[1] = molecular target: T1, Tdp1 (Homo sapiens, UniProt Q9NUW8); test: Real-time detection of Tdp1 activity (oligonucleotide biosensor, FAM/BHQ1); assay type: biochemical; design: key to Eut/Dis: The stereoisomer with the greater inhibitory activity is termed the eutomer (Eut); that with the lower activity, the distomer (Dis); settings: for IC50: 1.5 nM Tdp1, 50 nM biosensor, 26 °C, three independent experiments; for ER (eudismic ratio): IC50 (Eutomer)/IC50 (Distomer); for ER (eudismic ratio) / EI (eudismic index): per stereoisomer pair; for Eut/Dis: eutomer or distomer within the stereoisomer pair; for EI (eudismic index): −logER
T1 sequence (Q9NUW8 whole entry): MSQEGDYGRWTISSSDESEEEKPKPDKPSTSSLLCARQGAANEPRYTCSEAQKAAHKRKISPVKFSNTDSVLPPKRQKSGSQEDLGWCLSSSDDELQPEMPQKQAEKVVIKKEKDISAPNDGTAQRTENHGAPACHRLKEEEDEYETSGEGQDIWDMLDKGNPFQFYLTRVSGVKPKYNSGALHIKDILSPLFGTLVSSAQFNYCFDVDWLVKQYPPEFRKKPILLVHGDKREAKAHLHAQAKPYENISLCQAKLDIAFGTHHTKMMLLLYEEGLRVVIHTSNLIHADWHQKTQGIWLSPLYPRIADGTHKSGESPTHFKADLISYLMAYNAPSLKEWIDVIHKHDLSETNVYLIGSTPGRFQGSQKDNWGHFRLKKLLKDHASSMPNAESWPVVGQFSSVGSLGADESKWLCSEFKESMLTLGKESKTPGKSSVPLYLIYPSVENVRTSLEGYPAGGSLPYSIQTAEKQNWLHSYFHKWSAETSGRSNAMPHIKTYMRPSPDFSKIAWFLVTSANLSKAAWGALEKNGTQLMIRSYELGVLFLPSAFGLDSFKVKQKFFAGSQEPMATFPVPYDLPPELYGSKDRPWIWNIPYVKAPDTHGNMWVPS
Experimental: The measurement of Tdp1 inhibition was performed using a real-time oligonucleotide biosensor based on the capability of Tdp1 to remove fluorophore quenchers from the 3′-end of DNA [31]. The single-stranded Tdp1 substrate was a 16-mer oligonucleotide containing a 5′-FAM (6-carboxyfluorescein) fluorophore donor and a 3′-BHQ1 quencher (black hole quencher 1). When a quencher is removed by Tdp1, FAM fluorescence flares up and can be detected by a fluorimeter. In the presence of an inhibitor, fluorescence intensity decreases. The obtained Tdp1 activity versus inhibitor concentration curves were used to calculate IC50 values. We also studied other structurally related compounds, such as optically active benzoylated arabinofuranose and ribofuranose to ascertain the influence of a heterocyclic base on biological activity (Table 1).
Real-time detection of Tdp1 activity was reported in our previous work. This approach involves measuring the fluorescence intensity during the reaction of quencher removal from a fluorophore-quencher coupled to a DNA-oligonucleotide catalyzed by Tdp1 in the presence of inhibitor (the control samples contained 1% DMSO). Reaction mixtures ([…]) contained Tdp1 buffer (50mM Tris-HCl, pH 8.0, 50mM NaCl, 7mM β-mercaptoethanol), 50 nM biosensor, testable inhibitor, and purified Tdp1 (1.5 nM). The biosensor was a single-stranded oligonucleotide (5′-[FAM] AAC GTC AGGGTC TTC C [BHQ]-3′) containing a fluorophore at the 5′-end (5,6-FAM) and black hole quencher 1 (BHQ) at the 3′-end that was synthesized in the Laboratory of nucleic acid chemistry at the Institute of Chemical Biology and Fundamental Medicine, Novosibirsk, Russia. The reactions were incubated at a constant temperature of 26 °C in a POLARstar OPTIMA fluorimeter (BMG LABTECH, GmbH, Soest, Germany) set to measure fluorescence every 55 s (Ex485/Em520 nm) during the linear phase (from 0 to 8 min). The values for half maximal inhibitory concentration (IC50) were determined using a six-point concentration response curve in three independent experiments and calculated using MARS Data Analysis 2.0 (BMG LABTECH, Soest, Germany).

[2] = test system: recombinant human Tdp1; test: Steady-state kinetic analysis of Tdp1 enzymatic reaction; assay type: biochemical; settings: from dependence of Vmax and KM on inhibitor concentration
Experimental: To confirm the interaction model obtained by molecular docking, the type of inhibition by compounds 3D, 3L, 7R, and 7S was determined by a steady-state kinetic assay. During the experiment, dependence curves of the enzymatic reaction rate (V) on substrate concentration (S) in the presence of different concentrations of the inhibitors were obtained (Figures S36–S39 in Supplementary Materials). The apparent Michaelis constant (KM) and the maximum reaction rate (Vmax) were calculated according to the Michaelis–Menten equation. Conclusions about the type of inhibition were made from the characteristics of the dependence of Vmax and KM on the concentration of the inhibitor.
To determine the apparent maximum rate of enzymatic reaction (Vmax), Michaelis constant (KM), and possible inhibition mechanism, steady-state kinetic experiments were carried out at five fixed concentrations for the substrate with various inhibitor concentrations. The standard reaction mixtures (200 μL) contained 50 nM, 100 nM, 200 nM, 500 nM, or 1000 nM substrate, testable inhibitor, 1.5 nM recombinant human Tdp1, and reaction buffer components (50 mM Tris-HCl, pH 8.0, 50 mM NaCl, 7 mM β-mercaptoethanol). After the addition of the enzyme, the reaction mixtures were incubated at a constant temperature of 26 °C and measured in a POLARstar OPTIMA fluorimeter (BMG LABTECH, GmbH) set to measure fluorescence every 55 s (Ex485/Em520 nm) during the linear phase (0 to 8 min). The initial data (kinetic curves) were obtained in three independent experiments and statistically processed with OriginPro 8.6.0 software.

[3] = molecular target: T1, Tdp1; test: Fluorescence anisotropy assay; assay type: binding; settings: FAM-labeled DNA with Tdp1, increasing inhibitor concentration
Source text: To clarify the mechanism of action of this compound, the change in the fluorescence anisotropy during the Tdp1 catalytic reaction was studied. This method is based on the ability of fluorescent molecules to be excited by plane-polarized light when their dipole moment is parallel to the plane of polarization. If such a molecule is unable to rotate in space, then the emitted light will be polarized following excitation. Conversely, if the molecule can rotate, then the emitted light is “depolarized”. The minimum anisotropy value corresponds to FAM-labeled DNA (Figure S40, gray graph). When Tdp1 was added, the anisotropy increased due to the binding of the DNA by the enzyme, which prevents its free rotation (Figure S40, red graph).
This means that the inhibitor can bind to the active site of Tdp1 instead of the DNA substrate, thereby reducing the activity of the enzyme by competitive inhibition. This is consistent with the data obtained in the kinetic studies. […] Thus, a competitive component is present when Tdp1 is inhibited by compound 7R; however, this process is more complicated and requires further study with other methods.

O=C(OC[C@@H]1O[C@H](n2ccc(=O)[nH]c2=O)[C@@H](OC(=O)c2ccccc2)[C@H]1OC(=O)c1ccccc1)c1ccccc1 [Compound 3L, 2′,3′,5′-tri-O-benzoyl-L-uridine]
IC50 [1]: 5.1 ± 0.1 µM
ER (eudismic ratio) [1]: 0.745
Eut/Dis [1]: Dis
EI (eudismic index) [1]: 0.128
type of inhibition [2]: uncompetitive

C[C@H](OC(=O)c1ccccc1)[C@H]1O[C@@H](n2c(=O)cc[nH]c2=O)[C@H](OC(=O)c2ccccc2)[C@@H]1OC(=O)c1ccccc1 [Compound 5S, 3-[5(S)-C-methyl-2,3,5-tri-O-benzoyl-β-D-ribofuranosyl]uracil]
IC50 [1]: 2.7 ± 0.2 µM
ER (eudismic ratio) [1]: 0.871
Eut/Dis [1]: Eut
EI (eudismic index) [1]: 0.06

Cc1cn([C@@H]2O[C@H](COC(=O)c3ccccc3)[C@@H](OC(=O)c3ccccc3)[C@H]2OC(=O)c2ccccc2)c(=O)[nH]c1=O [Compound 4D, 1-(2,3,5-Tri-O-benzoyl-β-D-ribofuranosyl)thymine]
ER (eudismic ratio) [1]: 0.108
Eut/Dis [1]: Eut
EI (eudismic index) [1]: 0.967

CO[C@@H]1O[C@@H](COC(=O)c2ccccc2)[C@H](OC(=O)c2ccccc2)[C@H]1OC(=O)c1ccccc1 [Compound 1L, 1-O-methyl-2,3,5-tri-O-benzoyl-α-L-arabinofuranose]
IC50 [1]: 6.7 ± 1.9 µM
ER (eudismic ratio) [1]: 0.343
Eut/Dis [1]: Dis
EI (eudismic index) [1]: 0.465

C[C@@H](OC(=O)c1ccccc1)[C@H]1O[C@@H](n2c(=O)cc[nH]c2=O)[C@H](OC(=O)c2ccccc2)[C@@H]1OC(=O)c1ccccc1 [Compound 5R, 3-[5(R)-C-methyl-2,3,5-O-tribenzoyl-β-D-ribofuranosyl]uracil]
IC50 [1]: 3.1 ± 0.2 µM
ER (eudismic ratio) [1]: 0.871
Eut/Dis [1]: Dis
EI (eudismic index) [1]: 0.06

C[C@@H](OC(=O)c1ccccc1)[C@H]1O[C@@H](n2cnc3c(NC(=O)c4ccccc4)ncnc32)[C@H](OC(=O)c2ccccc2)[C@@H]1OC(=O)c1ccccc1 [Compound 7R, 5′(R)-C-methyl-2′,3′,5′-tri-O-benzoyl-N^6-benzoyladenosine]
IC50 [1]: 4.4 ± 0.8 µM
ER (eudismic ratio) [1]: 0.956
Eut/Dis [1]: Eut
EI (eudismic index) [1]: 0.0193
type of inhibition [2]: uncompetitive at low inhibitor concentrations and mixed at high

C[C@@H](OC(=O)c1ccccc1)[C@H]1O[C@@H](n2ccc(N)nc2=O)[C@H](OC(=O)c2ccccc2)[C@@H]1OC(=O)c1ccccc1 [Compound 6R, 1-[5(R)-C-methyl-2,3,5-tri-O-benzoyl-β-D-ribofuranosyl]cytosine]
IC50 [1]: 5.8 ± 0.5 µM
ER (eudismic ratio) [1]: 0.896
Eut/Dis [1]: Dis
EI (eudismic index) [1]: 0.048

O=c1ccn([C@@H]2O[C@H](CO)[C@@H](O)[C@H]2O)c(=O)[nH]1 [Compound 8D]
IC50 [1]: > 50 µM

C[C@H](OC(=O)c1ccccc1)[C@H]1O[C@@H](n2ccc(N)nc2=O)[C@H](OC(=O)c2ccccc2)[C@@H]1OC(=O)c1ccccc1 [Compound 6S, 1-[5(S)-C-methyl-2,3,5-tri-O-benzoyl-β-D-ribofuranosyl]cytosine]
IC50 [1]: 5.2 ± 0.8 µM
ER (eudismic ratio) [1]: 0.896
Eut/Dis [1]: Eut
EI (eudismic index) [1]: 0.048

CC(=O)O[C@@H]1O[C@H](COC(=O)c2ccccc2)[C@@H](OC(=O)c2ccccc2)[C@H]1OC(=O)c1ccccc1 [Compound 2D, 1-O-Acetyl-2,3,5-tri-O-benzoyl-β-D-ribofuranose]
ER (eudismic ratio) [1]: 0.808
Eut/Dis [1]: Eut
EI (eudismic index) [1]: 0.09

CO[C@H]1O[C@H](COC(=O)c2ccccc2)[C@@H](OC(=O)c2ccccc2)[C@@H]1OC(=O)c1ccccc1 [Compound 1D, 1-O-methyl-2,3,5-tri-O-benzoyl-α-D-arabinofuranose]
IC50 [1]: 2.3 ± 0.6 µM
ER (eudismic ratio) [1]: 0.343
Eut/Dis [1]: Eut
EI (eudismic index) [1]: 0.465

O=c1ccn([C@H]2O[C@@H](CO)[C@H](O)[C@@H]2O)c(=O)[nH]1 [Compound 8L]
IC50 [1]: > 50 µM

Cc1cn([C@H]2O[C@@H](COC(=O)c3ccccc3)[C@H](OC(=O)c3ccccc3)[C@@H]2OC(=O)c2ccccc2)c(=O)[nH]c1=O [Compound 4L, 2′,3′,5′-tri-O-benzoyl-L-ribothymidine]
IC50 [1]: 25 ± 1 µM
ER (eudismic ratio) [1]: 0.108
Eut/Dis [1]: Dis
EI (eudismic index) [1]: 0.967

C[C@H](OC(=O)c1ccccc1)[C@H]1O[C@@H](n2cnc3c(NC(=O)c4ccccc4)ncnc32)[C@H](OC(=O)c2ccccc2)[C@@H]1OC(=O)c1ccccc1 [Compound 7S, 5′(S)-C-methyl-2′,3′,5′-tri-O-benzoyl-N^6-benzoyladenosine]
change in fluorescence anisotropy [3]: decreased with an increasing concentration of the inhibitor
IC50 [1]: 4.6 ± 0.9 µM
ER (eudismic ratio) [1]: 0.956
Eut/Dis [1]: Dis
EI (eudismic index) [1]: 0.0193
type of inhibition [2]: competitive

O=C(OC[C@H]1O[C@@H](n2ccc(=O)[nH]c2=O)[C@H](OC(=O)c2ccccc2)[C@@H]1OC(=O)c1ccccc1)c1ccccc1 [Compound 3D, 2′,3′,5′-tri-O-benzoyl-D-uridine]
IC50 [1]: 3.8 ± 0.4 µM
ER (eudismic ratio) [1]: 0.745
Eut/Dis [1]: Eut
EI (eudismic index) [1]: 0.128
type of inhibition [2]: uncompetitive

CC(=O)O[C@H]1O[C@@H](COC(=O)c2ccccc2)[C@H](OC(=O)c2ccccc2)[C@@H]1OC(=O)c1ccccc1 [Compound 2L]
IC50 [1]: 5.2 ± 0.2 µM
ER (eudismic ratio) [1]: 0.808
Eut/Dis [1]: Dis
EI (eudismic index) [1]: 0.09
